Consider 23 compounds from patent US5399697A, “N,N',N'-trisubstituted-5-bisaminomethylene-1,3-dioxane-4,6-dione inhibitors of acyl-CoA:cholesterol-acyl transferase” (American Home Products Corporation, priority 1993, dated 1995).

This experiment deals with acyl-coenzyme A: cholesterol acyltransferase. In words: Inhibition of ACAT / intracellular cholesterol esterification in vitro (procedure of Ross et al.). The experiment is classed as cell-based. To be noted: for IC50: read-out: IC50.

As for `COc1ccc(NC(=C2C(=O)OC(C)(C)OC2=O)N(Cc2ccc(CC(C)(C)C)cc2)CC2(c3ccccc3)CCCC2)c(OC)c1` [Compound 10, 5-[[(2,4-Dimethoxyphenyl)amino][[[4-(2,2-dimethylpropyl)phenyl]methyl)][(1-penylcyclo-pentylmethyl]amino]methylene]-2,2-dimethyl-3-dioxane-4,6-dione], the IC50 turned out to be 290 nM. The “% Inhibition” value (25 μM) was determined as 97%. Turning to `CCCCCCCC/C=C\CCCCCCCCN(Cc1ccc(C(C)(C)C)cc1)C(Nc1ccc(OC)cc1OC)=C1C(=O)OC(C)(C)OC1=O` [Compound 70, 5-[[(2,4-Dimethoxyphenyl)amino][[[4-(1,1-dimethylethyl)phenyl]methyl]((Z)-9-octadecenyl)-amino]methylene]-2,2-dimethyl-1,3-dioxane-2,4-dione], for the setting “25 μM”, the “% Inhibition” value was 24%. With `CCCCCCN(CCCCCC)C(Nc1ccc(F)cc1)=C1C(=O)OC(C)(C)OC1=O` [Compound 3, 5-[(Dihexylamino)[(4-fluorophenyl)amino]methylene]-2,2-dimethyl-1,3-dioxane-4,6-dione], the IC50 was found to be 9000 nM. Besides, the “% Inhibition” value (50 μM) came to 77%. As to `CCCCc1ccc(CN(C(Nc2ccc(OC)cc2OC)=C2C(=O)OC(C)(C)OC2=O)C(C)CCCC(C)(C)O)cc1` (centres unmarked) [Compound 44, 5-[[[(4-Butylphenyl)methyl](5-hydroxy-1,5-dimethylhexyl)amino][(2,4-dimethoxyphenyl)-amino]methylene]-2,2-dimethyl-1,3-dioxane-4,6-dione], the IC50 is 15000 nM. Further, the “% Inhibition” value (25 μM) is given as 82%. For `CCCCCC(C)N(Cc1ccc(OCC(C)C)cc1)C(Nc1ccc(N(C)C)cc1)=C1C(=O)OC(C)(C)OC1=O` (centres unmarked) [Compound 63], the half-inhibitory concentration (IC50) turned out to be 90 nM. Moreover, the “% Inhibition” value (25 μM) is 99%.

For the compound `CCCCCCCN(Cc1ccc(C(C)(C)C)cc1)C(Nc1ccc(F)cc1F)=C1C(=O)OC(C)(C)OC1=O` [Compound 15], the “% Inhibition” value (50 μM) is listed as 63%. For the compound `CCCCCCCN(Cc1ccc(CCCCC)cc1)C(Nc1ccc(C(F)(F)F)cc1)=C1C(=O)OC(C)(C)OC1=O` [Compound 17, 5-[[[4-(Trifluoromethyl)phenyl]amino][heptyl[(4-pentylphenyl)methyl]amino]methylene]-2,2-dimethyl-1,3-dioxane-4,6-dione], under “25 μM”, the “% Inhibition” value is 72%. Turning to `CCCCCCCN(Cc1ccc(C(C)(C)C)cc1)C(Nc1ccc(OCCCCC)cc1)=C1C(=O)OC(C)(C)OC1=O` [Compound 24], the IC50 worked out at 2300 nM. Where the note is “25 μM”, the “% Inhibition” value was 96%. Take `COc1ccc(NC(=C2C(=O)OC(C)(C)OC2=O)N(Cc2ccc(CCC(C)C)cc2)C(CC(C)C)CC(C)C)c(OC)c1` [Compound 72, 5-[[(2,4-Dimethoxyphenyl)amino][[[4-(3-methylbutyl)phenyl]methyl][-3-methyl-1-(2-methylpropyl)butyl]amino]methylene]-2,2-dimethyl-1,3-dioxane-4,6-dione]: the IC50 came to 1300 nM. Moreover, for the setting “25 μM”, the “% Inhibition” value is given as 98%. On the same counts, the results for `CCCCCCCN(Cc1ccc(C(C)(C)C)cc1)C(Nc1ccc(OCc2ccccc2)cc1)=C1C(=O)OC(C)(C)OC1=O` [Compound 26] are 920 nM and 92%. On to `CCCCCCCN(Cc1ccc(C(C)(C)C)cc1)C(Nc1ccc(OCCCC)cc1)=C1C(=O)OC(C)(C)OC1=O` [Compound 19], for which the concentration for half-maximal inhibition (IC50) was 2400 nM. The “% Inhibition” value (25 μM) worked out at 98%. For `CCCCCCCN(Cc1ccc(OCCC(C)C)cc1)C(Nc1cc(OC)c(OC)c(OC)c1)=C1C(=O)OC(C)(C)OC1=O` [Compound 23], the IC50 turned out to be 3500 nM. For the same compound, the “% Inhibition” value (25 μM) is on record as 85%.

Turning to `CCCCCC(C)N(Cc1ccc(CCC(C)C)cc1)C(Nc1ccc(OC)cc1OC)=C1C(=O)OC(C)(C)OC1=O` (centres unmarked) [Compound 56, 5-[[(2,4-Dimethoxyphenyl)amino][[[4-(3-methylbutyl)phenyl]methyl](1-methylhexyl)amino]-methylene]-2,2-dimethyl-1,3-dioxane-4,6-dione], the 50% inhibitory concentration (IC50) stood at 1400 nM. Moreover, the “% Inhibition” value (25 μM) was 97%.

As to `CCCCCC(C)N(Cc1ccc(OCC(C)C)cc1)C(Nc1ccc(C)cc1C)=C1C(=O)OC(C)(C)OC1=O` (centres unmarked) [Compound 68], the half-inhibitory concentration (IC50) was found to be 280 nM. In addition, the “% Inhibition” value (25 μM) was determined as 98%. Turning to `CC(C)Cc1ccc(CN(C(Nc2ccc(N(C)C)cc2)=C2C(=O)OC(C)(C)OC2=O)C2CCN(Cc3ccccc3)CC2)cc1` [Compound 49, 5-[[[4-(Dimethylamino)phenyl]amino][[[4-(2-methylpropyl)phenyl]methyl][1-(phenylmethyl)-4-piperidinyl]amino]methylene]-2,2-dimethyl-1,3-dioxane-4,6-dione], the IC50 came to 4500 nM. The “% Inhibition” value (25 μM) came to 80%. As to `CCCCCCCN(Cc1ccc(C(C)(C)C)cc1)C(Nc1c(C)cc(N(C)C)cc1C)=C1C(=O)OC(C)(C)OC1=O` [Compound 16, 5-[[[4-(Dimethylamino)-2,6-dimethylphenyl]amino][[[4-(1,1-dimethylethyl)phenyl]methyl]heptylamino]methylene]-2,2-dimethyl-1,3-dioxane-4,6-dione], the IC50 stood at 980 nM. Besides, the “% Inhibition” value (25 μM) stood at 84%. `CCCCC(CC)N(Cc1ccc(CC(C)(C)C)cc1)C(Nc1ccc(N(C)C)cc1)=C1C(=O)OC(C)(C)OC1=O` (centres unmarked) [Compound 62]: the IC50 was found to be 640 nM. Moreover, the “% Inhibition” value (25 μM) came out at 99%.

With `CCCCC(CC)N(Cc1ccc(CC(C)(C)C)cc1)C(Nc1ccc(OC)cc1OC)=C1C(=O)OC(C)(C)OC1=O` (centres unmarked) [Compound 60, 5-[[(2,4-Dimethoxyphenyl)amino][[[4-(2,2-dimethylpropyl)phenyl]methyl](1-ethylpentyl)amino]-methylene]-2,2-dimethyl-1,3-dioxane-4,6-dione], the IC50 was found to be 540 nM. The “% Inhibition” value (25 μM) is listed as 99%. Regarding `CN(C(Nc1cc(C(C)(C)C)c(O)c(C(C)(C)C)c1)=C1C(=O)OC(C)(C)OC1=O)c1ccccn1` [Compound 83], the “% Inhibition” value (50 μM) is 86%. As to `CCCCCCN(CCCCCC)C(Nc1ccc(OC)cc1OC)=C1C(=O)OC(C)(C)OC1=O` [Compound 1, 5-[(Dihexylamino)[(2,4-dimethoxyphenyl)amino]methylene]-2,2-dimethyl-1,3-dioxane-4,6-dione], where the note is “50 μM”, the “% Inhibition” value is listed as 65%. Turning to `CCCCCC(C)N(Cc1ccc(CCC(C)C)cc1)C(Nc1ccc(N(C)C)cc1C)=C1C(=O)OC(C)(C)OC1=O` (centres unmarked) [Compound 61], the IC50 worked out at 160 nM. Also, the “% Inhibition” value (25 μM) stood at 98%.

With `CCCCC(CC)N(Cc1ccc(CC(C)(C)C)cc1)C(Nc1ccc(N(C)C)cc1C)=C1C(=O)OC(C)(C)OC1=O` (centres unmarked) [Compound 66, 5-[[[4-(Dimethylamino)-2-methylphenyl]amino][[[4-(2,2-dimethylpropyl)phenyl]methyl](1-ethylpentyl)amino]methylene]-2,2-dimethyl-1,3-dioxane-4,6-dione], the IC50 came out at 190 nM. Further, the “% Inhibition” value (25 μM) was 98%.

Consider `COc1ccc(NC(=C2C(=O)OC(C)(C)OC2=O)N(Cc2ccc(CC(C)C)cc2)[C@@H](CO)CC(C)C)c(OC)c1` [Compound 74, (R)-5-[[(2,4-Dimethoxyphenyl)amino][[1-(hydroxymethyl)-3-methylbutyl][[4-(2-methylpropyl)-phenyl]methyl]amino]methylene]-2,2-dimethyl-1,3-dioxane-4,6,-dione], for which the IC50 was 290 nM. Further, the “% Inhibition” value (concentration not given) worked out at 97%.

What is called % Inhibition is the drop in the measured response relative to a control, in per cent. A lower % Inhibition goes with a weak effect. The IC50 is the concentration that inhibits the measured activity by half.
